Measurements taken from US20230293458A1, “MULTIBIOTIC AGENTS AND METHODS OF USING THE SAME” (Flagship Pioneering Innovations V, Inc., priority 2017, published 2023).

Key:
[1] = Stability of multibiotic agents in Simulated Gastric Fluid (SGF); format: in vitro ADME; conditions: simulated gastric fluid pH 1.6 with pepsin, 37° C., 1 μM
Experimental: Assay 3. Stability of multibiotic agents in Simulated Gastric Fluid (SGF). This assay can be used to assess the stability of a multibiotic agent in a stomach.
Medium was prepared by dissolving 2 g of sodium chloride in 0.6 L in ultrapure water (MilliQ®, Millipore Sigma, Darmstadt, Germany). The pH was adjusted to 1.6 with 1 N hydrochloric acid, and the volume was then adjusted to 1 L with purified water.
60 mg FaSSIF powder (Biorelevant™, London, UK) were dissolved in 500 mL buffer (above). Pepsin was added (0.1 mg/mL) (Millipore Sigma, Darmstadt, Germany), and the solution was stirred. The resulting SGF media were used fresh for each experiment.
Test compounds were dissolved in DMSO stock to 1 mM. An aliquot of the DMSO stock solution was removed and diluted in the SGF Media in 15 mL falcon tubes to generate a total compound concentration of 1 μM. A 1 mL aliquot was immediately removed and diluted once with 1 volume of acetonitrile for T0 timepoint. The mixture was sealed and mixed at 37° C. in an incubator. Aliquots (1 mL) were removed at regular intervals and immediately quenched by the addition of 1 volume of acetonitrile. The resulting samples were analyzed by LC/MS to determine degradation rates in SGF.

[2] = Stability of multibiotic agents in Simulated Intestinal Fluid (SIF); format: in vitro ADME; conditions: simulated intestinal fluid pH 6.7 with pancreatin, 37° C., 1 μM
Experimental: Assay 2. Stability of multibiotic agents in Simulated Intestinal Fluid (SIF). This assay can be used to assess the stability of a multibiotic agent in a small intestine. Phosphate buffer was prepared by dissolving 0.42 g of sodium hydroxide pellets and 3.95 g of monobasic sodium phosphate monohydrate and 6.19 g of sodium chloride in ultrapure water (MilliQ®, Millipore Sigma, Darmstadt, Germany). The pH was adjusted to 6.7 using aq. HCl and aq. NaOH, as necessary, and the solution was diluted with ultrapure water to produce 1 L of the pH 6.7 buffer. 112 mg FaSSIF powder (Biorelevant™, London, UK) was dissolved in 50 mL of the pH 6.7 buffer. 2 to 3 mL of the resulting solution were then added to 500 mg pancreatin (Millipore Sigma, Darmstadt, Germany). The resulting mixture was agitated by finger tapping the vessel containing the mixture until milky suspension formed. At this time, the remainder of the 50 mL FaSSiF/pH 6.7 buffer solution was added. The resulting suspension was flipped upside down 10 times to produce SIF, which was used fresh. Test compounds are dissolved in DMSO stock to 1 mM. An aliquot of the DMSO stock solution is removed and diluted in the SIF media in 15 mL falcon tubes to produce a mixture with a tested compound concentration of 1 μM. A 1 mL aliquot is immediately removed and diluted once with 1 volume of acetonitrile for T0 timepoint. The mixture is sealed and agitated at 37° C. in an incubator. Aliquots (1 mL) are removed at regular intervals and immediately quenched by the addition of 1 volume of acetonitrile. The resulting samples are analyzed by LC/MS to determine degradation rates.

Compound | Assay 2 (SGF) (% Remaining @ 4 hours) [1] | Assay 3 (SIF) (% @ Remaining 4 hours) [2]
CC(=O)Oc1cc(OC(C)=O)c2c(=O)c(OC(C)=O)c(-c3ccc(OC(C)=O)c(OC(C)=O)c3)oc2c1 [Example 74, [2-acetoxy-4-(3,5,7-triacetoxy-4-oxo-chromen-2-yl)phenyl] acetate] | C (>75% of the tested compound remaining) | A (<25% of the tested compound remaining)
CCCC(=O)Oc1cc(OC(=O)CCC)c2c(=O)c(OC(=O)CCC)c(-c3ccc(OC(=O)CCC)c(OC(=O)CCC)c3)oc2c1 [Example 75, [2-butanoyloxy-4-[3,5,7-tri(butanoyloxy)-4-oxo-chromen-2-yl]phenyl]butanoate] | C (>75% of the tested compound remaining) | B (25-75% of the tested compound remaining)
C[C@@H](O)CC(=O)O[C@H]1CO[C@H]2[C@@H]1OC[C@H]2OC(=O)C[C@@H](C)O [Example 78, [(3S,3aR,6R,6aR)-6-[(3R)-3-hydroxybutanoyl]oxy-2,3,3a,5,6,6a-hexahydrofuro[3,2-b]furan-3-yl] (3R)-3-hydroxybutanoate] | C (>75% of the tested compound remaining) | B (25-75% of the tested compound remaining)
CC(=O)OCc1cnc(C)c(O)c1COC(C)=O [Example 80, [4-(acetoxymethyl)-5-hydroxy-6-methyl-3-pyridyl] methyl acetate] | C (>75% of the tested compound remaining) | C (>75% of the tested compound remaining)
CC(=O)OC[C@H](OC(C)=O)[C@@H](COC(C)=O)OC(C)=O [Example 81, (2R, 3S)-butane-1,2,3,4-tetrayl tetraacetate] | C (>75% of the tested compound remaining) | C (>75% of the tested compound remaining)
CCCC(=O)OC[C@H](OC(=O)CCC)[C@@H](COC(=O)CCC)OC(=O)CCC [Example 82, (2R,3S)-butane-1,2,3,4-tetrayl tetrabutyrate] | C (>75% of the tested compound remaining) | B (25-75% of the tested compound remaining)
CO[C@@H]1[C@@H](OC(C)=O)[C@@H](OC(C)=O)[C@H](OC(C)=O)[C@H](OC(C)=O)[C@H]1OC(C)=O [Example 84, (1R,2R,3R,4S,5R,6R)-2,3,4,6-tetrakis(acetyloxy)-5-methoxycyclohexyl acetate] | C (>75% of the tested compound remaining) | C (>75% of the tested compound remaining)
CCCC(=O)O[C@H]1[C@H](OC(=O)CCC)[C@H](OC(=O)CCC)[C@@H](OC)[C@H](OC(=O)CCC)[C@H]1OC(=O)CCC [Example 85, (1R,2R,3R,4S,5R,6R)-2,3,4,6-tetrakis(butanoyloxy)-5-methoxycyclohexyl butanoate] | C (>75% of the tested compound remaining) | C (>75% of the tested compound remaining)
CC(=O)OC[C@@H](OC(C)=O)[C@H]1OC[C@H](OC(C)=O)[C@H]1OC(C)=O [Example 86, [(2R)-2-acetoxy-2-[(2R,3R,4S)-3,4-diacetoxytetrahydrofuran-2-yl]ethyl] acetate] | C (>75% of the tested compound remaining) | C (>75% of the tested compound remaining)
CCCC(=O)OC[C@@H](OC(=O)CCC)[C@H]1OC[C@H](OC(=O)CCC)[C@H]1OC(=O)CCC [Example 87, [(2R)-2-butanoyloxy-2-[(2R,3R,4S)-3,4-di (butanoyloxy)tetrahydrofuran-2-yl]ethyl] butanoate] | C (>75% of the tested compound remaining) | C (>75% of the tested compound remaining)
CC(=O)O[C@H]1CO[C@H]2[C@@H]1OC[C@H]2OC(C)=O [Example 88, [(3S,3aR,6R,6aR)-6-acetoxy-2,3,3a,5,6,6a-hexahydrofuro[3,2-b]furan-3-yl] acetate] | C (>75% of the tested compound remaining) | C (>75% of the tested compound remaining)
CC(=O)OCCCNC(=O)[C@H](OC(C)=O)C(C)(C)COC(C)=O [Example 89, 3-[[(2R)-2,4-diacetoxy-3,3-dimethyl-butanoyl]amino]propyl acetate] | C (>75% of the tested compound remaining) | C (>75% of the tested compound remaining)
CCCC(=O)OCCCNC(=O)[C@H](OC(=O)CCC)C(C)(C)COC(=O)CCC [Example 90, 3-[[(2R)-2,4-di(butanoyloxy)-3,3-dimethyl-butanoyl]amino] propyl butanoate] | C (>75% of the tested compound remaining) | A (<25% of the tested compound remaining)
CCCC(=O)O[C@H](C)CC(=O)OCCCNC(=O)[C@H](OC(=O)C[C@@H](C)OC(=O)CCC)C(C)(C)COC(=O)C[C@@H](C)OC(=O)CCC [Example 91, 3-[[(2R)-2,4-bis[[(3R)-3-butanoyloxybutanoyl]oxy]-3,3-dimethyl-butanoyl]amino]propyl (3R)-3-butanoyloxybutanoate] | C (>75% of the tested compound remaining) | A (<25% of the tested compound remaining)
CC(C)(COC(=O)Cc1c[nH]c2ccccc12)[C@@H](OC(=O)Cc1c[nH]c2ccccc12)C(=O)NCCCOC(=O)Cc1c[nH]c2ccccc12 [Example 92, 3-[[(2R)-2,4-bis[[2-(1H-indol-3-yl)acetyl]oxy]-3,3-dimethyl-butanoyl]amino]propyl 2-(1H-indol-3-yl)acetate] | C (>75% of the tested compound remaining) | C (>75% of the tested compound remaining)
CC(=O)OCC(C)(C)[C@@H](OC(C)=O)C(=O)NCCC(N)=O [Example 94, [(3R)-3-acetoxy-4-[(3-amino-3-oxo-propyl)amino]-2,2-dimethyl-4-oxo-butyl] acetate] | C (>75% of the tested compound remaining) | C (>75% of the tested compound remaining)
CCCC(=O)OCC(C)(C)[C@@H](OC(=O)CCC)C(=O)NCCC(N)=O [Example 95, [(3R)-4-[(3-amino-3-oxo-propyl)amino]-3-butanoyloxy-2,2-dimethyl-4-oxo-butyl] butanoate] | C (>75% of the tested compound remaining) | C (>75% of the tested compound remaining)
CCCC(=O)O[C@H](C)CC(=O)OCC(C)(C)[C@@H](OC(=O)C[C@@H](C)OC(=O)CCC)C(=O)NCCC(N)=O [Example 96, [(3R)-4-[(3-amino-3-oxo-propyl)amino]-3-[(3R)-3-butanoyloxybutanoyl]oxy-2,2-dimethyl-4-oxo-butyl] (3R)-3-butanoyloxybutanoate] | C (>75% of the tested compound remaining) | C (>75% of the tested compound remaining)
CC(C)(COC(=O)Cc1c[nH]c2ccccc12)[C@@H](OC(=O)Cc1c[nH]c2ccccc12)C(=O)NCCC(N)=O [Example 97, [(3R)-4-[(3-amino-3-oxo-propyl)amino]-3-[2-(1H-indol-3-yl)acetyl]oxy-2,2-dimethyl-4-oxo-butyl] 2-(1H-indol-3-yl)acetate] | C (>75% of the tested compound remaining) | C (>75% of the tested compound remaining)
